Results published in US7772241B2, “Variolin derivatives and their use as antitumor agents” (Pharma Mar S.A., priority 2001, dated 2010).

Experiments:
PANC-1 = assay: Inhibition of cells growth by colorimetric (SRB) assay, PANC-1
Outline: (§1)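 Read-out is sulforhodamine B protein stain (OD 490 nm) after cold TCA fixation, following 48 h continuous exposure to samples spanning 10 to 10^−8 μg/ml.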

LoVo = assay: Inhibition of cells growth by colorimetric (SRB) assay, LoVo
Outline: as §1

HT-29 = assay: Inhibition of cells growth by colorimetric (SRB) assay, HT-29
Outline: as §1

A-549 = assay: Inhibition of cells growth by colorimetric (SRB) assay, A-549
Outline: as §1

LNCaP = assay: Inhibition of cells growth by colorimetric (SRB) assay, LNCaP; conditions: SRB assay, 48 hours exposure
Outline: as §1

IGROV-ET = assay: Inhibition of cells growth by colorimetric (SRB) assay, IGROV-ET
Outline: as §1

DU-145 = assay: Inhibition of cells growth by colorimetric (SRB) assay, DU-145
Outline: as §1

HMEC1 = assay: Inhibition of cells growth by colorimetric (SRB) assay, HMEC1
Text: The finality of these assays is to interrupt the growth of a “in vitro” tumor cell culture by means a continued exhibition of the cells to the sample to be testing.
This form of the assay employs 96 well cell culture microplates of 9 mm diameter (Faircloth, 1988; Mosmann, 1983). Most of the cell lines are obtained from American Type Culture Collection (ATCC) derived from different human cancer types.
Cells are maintained in RPMI 1640 10% FBS, supplemented with 0.1 g/l penicillin and 0.1 g/l streptomycin sulphate and then incubated at 37° C., 5% CO2 and 98% humidity. For the experiments, cells were harvested from subconfluent cultures using trypsin and resuspended in fresh medium before plating.
Cells are seeded in 96 well microtiter plates, at 5×10^3 cells per well in aliquots of 195 μl medium, and they are allowed to attach to the plate surface by growing in drug free medium for 18 hours. Afterward, samples are added in aliquots of 5 μl in a ranging from 10 to 10^−8 μg/ml, dissolved in DMSO/EtOH/PBS (0.5:0.5:99). After 48 hours exposure, the antitumor effect are measured by the SRB methodology: cells are fixed by adding 50 μl of cold 50% (wt/vol) trichloroacetic acid (TCA) and incubating for 60 minutes at 4° C. Plates are washed with deionized water and dried. One hundred μl of SRB solution (0.4% wt/vol in 1% acetic acid) is added to each microtiter well and incubated for 10 minutes at room temperature. Unbound SRB is removed by washing with 1% acetic acid. Plates are air dried and bound stain is solubilized with Tris buffer. Optical densities are read on a automated spectrophotometric plate reader at a single wavelength of 490 nm.
The values for mean +/−SD of data from triplicate wells are calculated. Some parameters for cellular responses can be calculated: GI=growth inhibition, TGI=total growth inhibition (cytostatic effect) and LC=cell killing (cytotoxic effect).

K-562 = assay: Inhibition of cells growth by colorimetric (SRB) assay, K-562
Outline: as §1

IGROV-1 = assay: Inhibition of cells growth by colorimetric (SRB) assay, IGROV-1
Outline: as §1

SK-BR-3 = assay: Inhibition of cells growth by colorimetric (SRB) assay, SK-BR-3
Outline: as §1

SK-MEL-28 = assay: Inhibition of cells growth by colorimetric (SRB) assay, SK-MEL-28
Outline: as §1

LoVo-Dox = assay: Inhibition of cells growth by colorimetric (SRB) assay, LoVo-Dox
Outline: as §1

SK-OV-3 = assay: Inhibition of cells growth by colorimetric (SRB) assay, SK-OV-3
Outline: as §1

## Cc1ccc2c(-c3ccnc(N)n3)c3ccnc(N)n3c2n1.Cl [Compound 44]
PANC-1; Homo sapiens, PANC-1, 48 h, read-out: LC50 PANC-1, SRB assay, 48 hours exposure
  CC50: 27.5 µM
PANC-1; SRB assay, 48 hours exposure
  TGI PANC-1: 9.94E−06
PANC-1; read-out: GI50 PANC-1, SRB assay, 48 hours exposure
  GI50: 1.71 µM
LoVo; Homo sapiens, LoVo, 48 h, read-out: GI50 LOVO, SRB assay, 48 hours exposure
  GI50: 0.456 µM
LoVo; SRB assay, 48 hours exposure
  TGI LOVO: 1.13E−06
LoVo; read-out: LC50 LOVO, SRB assay, 48 hours exposure
  CC50: 2.75 µM
HT-29; Homo sapiens, HT-29, 48 h, read-out: LC50 HT-29, SRB assay, 48 hours exposure
  CC50: 27.5 µM
HT-29; SRB assay, 48 hours exposure
  TGI HT-29: 1.09E−05
HT-29; read-out: GI50 HT-29, SRB assay, 48 hours exposure
  GI50: 1.09 µM
A-549; Homo sapiens, A549, 48 h, read-out: LC50 A-549, SRB assay, 48 hours exposure
  CC50: 27.5 µM
A-549; SRB assay, 48 hours exposure
  TGI A-549: 2.75E−05
A-549; read-out: GI50 A-549, SRB assay, 48 hours exposure
  GI50: 9.17 µM
LNCaP
  TGI LN-caP: 7.85E−07
LNCaP; read-out: GI50 LN-caP
  GI50: 0.351 µM
LNCaP; read-out: LC50 LN-caP
  CC50: 1.76 µM
IGROV-ET; Homo sapiens, 48 h, read-out: GI50 IGROV-ET, SRB assay, 48 hours exposure
  GI50: 0.568 µM
IGROV-ET; Homo sapiens, 48 h, read-out: LC50 IGROV-ET, SRB assay, 48 hours exposure
  CC50: 17.2 µM
IGROV-ET; SRB assay, 48 hours exposure
  TGI IGROV-ET: 1.87E−06
DU-145; Homo sapiens, DU-145, 48 h, read-out: GI50 DU-145, SRB assay, 48 hours exposure
  GI50: 0.475 µM
DU-145; SRB assay, 48 hours exposure
  TGI DU-145: 1.51E−06
HMEC1; Homo sapiens, HMEC-1, 48 h, read-out: GI50 H-MEC-1, SRB assay, 48 hours exposure
  GI50: 0.158 µM
HMEC1; SRB assay, 48 hours exposure, in M (unit assumed)
  TGI H-MEC-1: 3.07E−07
HMEC1; read-out: LC50 H-MEC-1, SRB assay, 48 hours exposure
  CC50: 1.31 µM
K-562; Homo sapiens, K562, 48 h, read-out: LC50 K-562, SRB assay, 48 hours exposure
  CC50: 27.5 µM
K-562; SRB assay, 48 hours exposure
  TGI K-562: 2.75E−05
K-562; read-out: GI50 K-562, SRB assay, 48 hours exposure
  GI50: 4.17 µM
IGROV-1; Homo sapiens, IGROV-1, 48 h, read-out: GI50 IGROV, SRB assay, 48 hours exposure
  GI50: 1.08 µM
IGROV-1; Homo sapiens, IGROV-1, 48 h, read-out: LC50 IGROV, SRB assay, 48 hours exposure
  CC50: 24.6 µM
IGROV-1; SRB assay, 48 hours exposure
  TGI IGROV: 6.34E−06
SK-BR-3; Homo sapiens, SK-BR-3, 48 h, read-out: GI50 SK-BR-3, SRB assay, 48 hours exposure
  GI50: 0.612 µM
SK-BR-3; Homo sapiens, SK-BR-3, 48 h, read-out: LC50 SK-BR-3, SRB assay, 48 hours exposure
  CC50: 6.31 µM
SK-BR-3; SRB assay, 48 hours exposure
  TGI SK-BR-3: 1.61E−06
SK-MEL-28; Homo sapiens, SK-MEL-28, 48 h, read-out: GI50 MEL-28, SRB assay, 48 hours exposure
  GI50: 0.601 µM
SK-MEL-28; Homo sapiens, SK-MEL-28, 48 h, read-out: LC50 MEL-28, SRB assay, 48 hours exposure
  CC50: 8.95 µM
SK-MEL-28; SRB assay, 48 hours exposure
  TGI MEL-28: 2.11E−06
LoVo-Dox; Homo sapiens, 48 h, read-out: GI50 LOVO-DOX, SRB assay, 48 hours exposure
  GI50: 0.777 µM
LoVo-Dox; Homo sapiens, 48 h, read-out: LC50 LOVO-DOX, SRB assay, 48 hours exposure
  CC50: 23.5 µM
LoVo-Dox; SRB assay, 48 hours exposure
  TGI LOVO-DOX: 3.27E−06
SK-OV-3; Homo sapiens, SK-OV-3, 48 h, read-out: LC50 SKOV-3, SRB assay, 48 hours exposure
  CC50: 27.5 µM
SK-OV-3; SRB assay, 48 hours exposure
  TGI SKOV-3: 2.75E−05
